Values joined by “and” are separate entries in the source; they are usually repeats but may differ in a detail not shown here. Equal values may be shown once. Read-outs that look alike come from different tables or passages of the source. Marks after values point to notes of the source that are not given here.
Tests used:
[1] = biological target: T1, M. tuberculosis glutamine synthetase (Mycobacterium tuberculosis, UniProt P9WN39); assay type: cell-based, M. tuberculosis Erdman
M. tuberculosis = assay type: cell-based
[2] = biological target: T1, M. tuberculosis glutamine synthetase; assay type: biochemical, M. tuberculosis Erdman
[3] = biological target: T2, E. coli glutamine synthetase (Escherichia coli, UniProt P0A9C5); assay type: biochemical, E. coli W
T2 sequence (P0A9C5 2-469 limits assumed): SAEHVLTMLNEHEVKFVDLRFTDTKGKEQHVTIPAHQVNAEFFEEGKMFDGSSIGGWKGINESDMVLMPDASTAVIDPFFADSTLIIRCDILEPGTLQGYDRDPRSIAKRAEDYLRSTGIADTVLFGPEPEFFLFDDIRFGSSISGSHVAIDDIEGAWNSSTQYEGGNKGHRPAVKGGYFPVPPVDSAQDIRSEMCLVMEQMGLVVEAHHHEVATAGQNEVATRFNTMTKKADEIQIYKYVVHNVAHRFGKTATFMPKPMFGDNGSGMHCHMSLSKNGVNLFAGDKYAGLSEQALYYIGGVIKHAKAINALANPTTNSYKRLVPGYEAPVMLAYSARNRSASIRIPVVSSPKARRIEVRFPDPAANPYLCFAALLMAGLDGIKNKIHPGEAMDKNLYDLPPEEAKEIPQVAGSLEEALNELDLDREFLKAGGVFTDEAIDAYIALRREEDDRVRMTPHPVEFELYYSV

[4] = test system: sheep brain glutamine synthetase; assay type: biochemical
M. tuberculosis Erdman [5] = assay type: cell-based
M. tuberculosis H37Rv = assay type: cell-based
M. bovis = assay type: cell-based
M. bovis BCG = assay type: cell-based
M. avium = assay type: cell-based
M. smegmatis = assay type: cell-based
M. phlei = assay type: cell-based; conditions: 3 d
[6] = test system: L. pneumophila Philadelphia 1; assay type: cell-based; conditions: 24 h
E. coli DH5α = assay type: cell-based; conditions: 6 h
[7] = test system: M. tuberculosis superoxide dismutase; assay type: cell-based; conditions: 20 μM
[8] = biological target: T1, M. tuberculosis glutamine synthetase; assay type: cell-based, M. tuberculosis (expressed in M. smegmatis); conditions: 200 μM
[9] = test system: recombinant M. tuberculosis glutamine synthetase; assay type: cell-based, M. tuberculosis (expressed in M. smegmatis); conditions: 200 μM
M. tuberculosis Erdman [10] = assay type: cell-based; remark: listed apart in the source
M. avium (25291; ATCC) = assay type: cell-based
[11] = test system: γ-glutamylcysteine synthetase; conditions: in contrast to glutamine synthetase; cited from earlier work

T1 sequence (P9WN39 2-478): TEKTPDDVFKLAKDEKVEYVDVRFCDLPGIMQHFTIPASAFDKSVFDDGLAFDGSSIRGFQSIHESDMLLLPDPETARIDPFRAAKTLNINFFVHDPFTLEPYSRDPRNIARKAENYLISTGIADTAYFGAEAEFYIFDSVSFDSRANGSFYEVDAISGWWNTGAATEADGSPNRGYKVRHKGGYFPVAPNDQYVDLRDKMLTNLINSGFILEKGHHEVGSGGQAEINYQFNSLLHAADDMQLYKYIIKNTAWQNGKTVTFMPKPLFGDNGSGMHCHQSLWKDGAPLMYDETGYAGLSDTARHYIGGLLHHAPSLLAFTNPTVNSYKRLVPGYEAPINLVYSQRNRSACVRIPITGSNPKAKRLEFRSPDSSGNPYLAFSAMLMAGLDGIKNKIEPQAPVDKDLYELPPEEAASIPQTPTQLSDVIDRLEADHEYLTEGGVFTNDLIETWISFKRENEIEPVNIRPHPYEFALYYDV

NNC(=O)c1ccncc1 [isoniazid]
effect on intracellular or extracellular glutamine synthetase activity [1]: negligible effect

NCC[C@H](O)C(=O)N[C@@H]1C[C@H](N)[C@@H](O[C@H]2O[C@H](CN)[C@@H](O)[C@H](O)[C@H]2O)[C@H](O)[C@H]1O[C@H]1O[C@H](CO)[C@@H](O)[C@H](N)[C@H]1O [Amikacin, amikacin]
influence on the content of either poly-L-glutamate/glutamine or D,L-alanine (M. tuberculosis): little influence
D,L-Alanine (M. tuberculosis; 0.06 μg/ml): 29.1 μg/10^10 Cells
Poly-L-Glutamate/glutamine (M. tuberculosis; 0.06 μg/ml): 49.9 μg/10^10 Cells
D,L-Alanine (M. tuberculosis; 0.25 μg/ml): 26.3 μg/10^10 Cells
Poly-L-Glutamate/glutamine (M. tuberculosis; 0.25 μg/ml): 43.2 μg/10^10 Cells
D,L-Alanine (M. tuberculosis; 1 μg/ml): 12.0^a μg/10^10 Cells
Poly-L-Glutamate/glutamine (M. tuberculosis; 1 μg/ml): 26.0^a μg/10^10 Cells

CC[C@@H](CO)NCCN[C@@H](CC)CO [ethambutol]
effect on intracellular or extracellular glutamine synthetase activity [1]: negligible effect

NC(=O)c1cnccn1 [pyrazinamide]
effect on intracellular or extracellular glutamine synthetase activity [1]: negligible effect

CS(=N)(=O)CC[C@H](N)C(=O)O (stereo partly drawn) [L-methionine-S-sulfoximine]
remaining enzyme activity (% of initial activity) ([2]; 2 µM): < 10% and 3–10%
remaining enzyme activity (% of initial activity) ([2]; 20 μM): < 10%
remaining enzyme activity (% of initial activity) ([2]; 200 μM): ≤ 0.5%
remaining enzyme activity (% of initial activity) ([3]; 2 µM): < 10% and 3–10%
remaining enzyme activity (% of initial activity) ([3]; 20 μM): < 10%
remaining enzyme activity (% of initial activity) ([3]; 200 μM): ≤ 0.5%
inactivation at the highest dose of inhibitor [4]: not completely inactivated
remaining enzyme activity (% of initial activity) ([4]; 2 μM): ~40%
Ki ([4]; read-out: Ki L-Ms): 110 µM
effect on cell growth (M. tuberculosis Erdman [5]): blocked cell growth almost immediately
growth (M. tuberculosis Erdman [5]): completely inhibited
growth lag behind uninhibited cultures with L-glutamine added (M. tuberculosis Erdman [5]): 0.4–1.3 log units
reversal of growth inhibition by L-glutamine (M. tuberculosis Erdman [5]): almost complete
growth lag behind untreated control cultures (M. tuberculosis Erdman [5]; 0.2 μM): 0.1–0.2 log units
growth plateau below that of control cultures (M. tuberculosis Erdman [5]; 2 μM): ~2 log units
sensitivity of growth to the inhibitor (M. tuberculosis Erdman [5]; 0.2-200 μM): highly sensitive
sensitivity of growth to the inhibitor (M. tuberculosis H37Rv): highly sensitive
sensitivity of growth to the inhibitor (M. bovis): highly sensitive
sensitivity of growth to the inhibitor (M. bovis BCG): highly sensitive
sensitivity of growth to the inhibitor (M. avium): intermediate
growth rate of parent and recombinant M. smegmatis strain (M. smegmatis; 200 μM): unaffected
sensitivity of growth to the inhibitor (M. smegmatis; 3 d): insensitive
sensitivity of growth to the inhibitor (M. phlei): insensitive
sensitivity of growth to the inhibitor [6]: insensitive
sensitivity of growth to the inhibitor (E. coli DH5α): insensitive
effect on the quantity of glutamine synthetase protein exported [1]: no detectable effect
cell-associated glutamine synthetase activity (plateau) ([1]; 20 μM): ~50 mU
decrease of cell-associated glutamine synthetase activity from the uninhibited level ([1]; 20 μM): 14%
extracellular glutamine synthetase activity ([1]; 20 μM): ~4.5 mU
reduction of extracellular glutamine synthetase activity from the uninhibited level ([1]; 20 μM): 80%
activity or quantity of extracellular superoxide dismutase compared with untreated cultures [7]: no reduction
decrease of extracellular glutamine synthetase activity of the recombinant strain [8]: 89%
decrease of cell-associated glutamine synthetase activity (sum of endogenous and recombinant enzymes) [9]: 17%
growth of intracellular bacteria (M. tuberculosis Erdman [10]; 2 μM): slowed
growth of intracellular bacteria (M. tuberculosis Erdman [10]; 200 μM): strongly inhibited
growth of intracellular bacteria (M. avium (25291; ATCC); 2 μM): uninhibited
growth of intracellular bacteria (M. avium (25291; ATCC); 200 μM): strongly inhibited
D,L-Alanine (M. tuberculosis; 0.2 μM): 21.2 μg/10^10 Cells
Poly-L-Glutamate/glutamine (M. tuberculosis; 0.2 μM): 18.2 μg/10^10 Cells
D,L-Alanine (M. tuberculosis; 2 μM): 17.7 μg/10^10 Cells
Poly-L-Glutamate/glutamine (M. tuberculosis; 2 μM): 9.8 μg/10^10 Cells
D,L-Alanine (M. tuberculosis; 20 μM): 17.8 μg/10^10 Cells
Poly-L-Glutamate/glutamine (M. tuberculosis; 20 μM): 6.1 μg/10^10 Cells
effect on morphology, doubling time, or viability (THP-1 human monocytes): no effect
nature of the inhibition of γ-glutamylcysteine synthetase [11]: reversible

CP(=O)(O)CCC(N)C(=O)O (racemic) [D,L-phosphinothricin]
remaining enzyme activity (% of initial activity) ([2]; 2 µM): < 10% and 3–10%
remaining enzyme activity (% of initial activity) ([2]; 20 μM): ≤ 0.5%
remaining enzyme activity (% of initial activity) ([2]; 200 μM): ≤ 0.5%
remaining enzyme activity (% of initial activity) ([3]; 2 µM): < 10% and 3–10%
remaining enzyme activity (% of initial activity) ([3]; 20 μM): ≤ 0.5%
remaining enzyme activity (% of initial activity) ([3]; 200 μM): ≤ 0.5%
inactivation at the highest dose of inhibitor [4]: not completely inactivated
remaining enzyme activity (% of initial activity) [4]: ~25%
remaining enzyme activity (% of initial activity) ([4]; 2 μM): 60%
Ki ([4]; read-out: Ki D,L-Ppt): 16.4 µM
cell density lag behind uninhibited cultures (M. tuberculosis Erdman [5]; 20, 200, 2,000 μM): 0.5–1.5 log units

CO[C@H]1/C=C/O[C@@]2(C)Oc3c(C)c(O)c4c(O)c(c(/C=N/N5CCN(C)CC5)c(O)c4c3C2=O)NC(=O)/C(C)=C\C=C\[C@H](C)[C@H](O)[C@@H](C)[C@@H](O)[C@@H](C)[C@H](OC(C)=O)[C@@H]1C [Rifampin, rifampin]
effect on intracellular or extracellular glutamine synthetase activity [1]: negligible effect
influence on the content of either poly-L-glutamate/glutamine or D,L-alanine (M. tuberculosis): little influence
D,L-Alanine (M. tuberculosis; 0.0125 μg/ml): 23.6 μg/10^10 Cells
Poly-L-Glutamate/glutamine (M. tuberculosis; 0.0125 μg/ml): 54.2 μg/10^10 Cells
D,L-Alanine (M. tuberculosis; 0.05 μg/ml): 25.1 μg/10^10 Cells
Poly-L-Glutamate/glutamine (M. tuberculosis; 0.05 μg/ml): 41.6 μg/10^10 Cells
D,L-Alanine (M. tuberculosis; 0.2 μg/ml): 20.0^a μg/10^10 Cells
Poly-L-Glutamate/glutamine (M. tuberculosis; 0.2 μg/ml): 40.0^a μg/10^10 Cells
